Data from patent publication US10681909B2, “Herbicidal triazoles” (FMC Corporation, priority 2014, dated 2020).

How the values were obtained:
[1] = tested on: cocklebur; assay: Test E preemergence; format: in vivo, Xanthium strumarium; conditions: scale 0 to 100
Excerpt: (§1) Seeds of plant species selected from corn (Zea mays), soybean (Glycine max), lambsquarters (Chenopodium album), poinsettia, wild (wild poinsettia, Euphorbia heterophylla), pigweed, palmer (palmer pigweed, Amaranthus palmeri), waterhemp (common waterhemp, Amaranthus rudis), surinam grass (Brachiaria decumbens), crabgrass, large (large crabgrass, Digitaria sanguinalis), crabgrass, Brazilian (Brazilian crabgrass, Digitaria horizontalis), panicum, fall (fall panicum, Panicum dichotomiflorum), foxtail, giant (giant foxtail, Setaria faberii), foxtail, green (green foxtail, Setaria viridis), goosegrass (Eleusine indica), johnsongrass (Sorghum halepense), ragweed (common ragweed, Ambrosia elatior), barnyardgrass (Echinochloa crus-galli), sandbur (southern sandbur, Cenchrus echinatus), arrowleaf sida (Sida rhombifolia), ryegrass, Italian (Italian ryegrass, Lolium multiflorum), dayflower, VA (Virginia dayflower, Commelina virginica), field bindweed (Convolvulus arvensis), cocklebur (common cocklebur, Xanthium strumarium), morningglory (Ipomoea coccinea), nightshade (eastern black nightshade, Solanum ptycanthum), kochia (Kochia scoparia), nutsedge, yellow (yellow nutsedge, Cyperus esculentus), smartweed (ladysthumb smartweed, Polygonum persicaria), velvetleaf (Abutilon theophrasti), horseweed (Conyza canadensis), and beggarticks (hairy beggarticks, Bidens pilosa), were planted into a silt loam soil and treated preemergence with test chemicals formulated in a non-phytotoxic solvent mixture which included a surfactant.
(§2) At the same time, plants from these crop and weed species and also waterhemp_RES1, (ALS & Triazine resistant common waterhemp, Amaranthus rudis), and waterhemp_RES2, (ALS & HPPD resistant common waterhemp, Amaranthus rudis) were planted in pots containing Sunshine Redi-Earth® planting medium comprising spaghnum peat moss, vermiculite, starter nutrients and dolomitic limestone were treated with postemergence applications of test chemicals formulated in the same manner. Plants ranged in height from 2 to 18 cm for postemergence treatments (1- to 4-leaf stage). Treated plants and controls were maintained in a greenhouse for 14 to 21 d, after which time all species were compared to controls and visually evaluated. Plant response ratings, summarized in Table E, are based on a scale of 0 to 100 where 0 is no effect and 100 is complete control. A dash (-) response means no test result.

[2] = tested on: nutsedge, yellow; assay: Test E preemergence; format: in vivo, Cyperus esculentus; conditions: scale 0 to 100
Excerpt: as §1, §2

[3] = tested on: sandbur; assay: Test E preemergence; format: in vivo, Cenchrus echinatus; conditions: scale 0 to 100
Excerpt: as §1, §2

[4] = tested on: smartweed; assay: Test E preemergence; format: in vivo, Polygonum persicaria; conditions: scale 0 to 100
Excerpt: as §1, §2

[5] = tested on: lambsquarters; assay: Test E preemergence; format: in vivo, Chenopodium album; conditions: scale 0 to 100
Excerpt: as §1, §2

[6] = tested on: kochia; assay: Test E preemergence; format: in vivo, Kochia scoparia; conditions: scale 0 to 100
Excerpt: as §1, §2

[7] = tested on: soybean; assay: Test E preemergence; format: in vivo, Glycine max; conditions: scale 0 to 100
Excerpt: as §1, §2

[8] = tested on: ducksalad; assay: Test C flooded paddy test; format: in vivo, Heteranthera limosa; conditions: Flood, applied to paddy water, rating after 13 to 15 d
Excerpt: (§3) At time of treatment, test pots were flooded to 3 cm above the soil surface, treated by application of test compounds directly to the paddy water, and then maintained at that water depth for the duration of the test. Treated plants and controls were maintained in a greenhouse for 13 to 15 d, after which time all species were compared to controls and visually evaluated. […] A dash (-) response means no test result.

[9] = tested on: rice; assay: Test C flooded paddy test; format: in vivo, Oryza sativa; conditions: Flood, applied to paddy water, rating after 13 to 15 d
Excerpt: as §3

[10] = tested on: barnyardgrass; assay: Test C flooded paddy test; format: in vivo, Echinochloa crus-galli; conditions: Flood, applied to paddy water, rating after 13 to 15 d
Excerpt: as §3

CCCc1nc(-c2ccc(F)cc2)nn1Cc1ccnc(C(F)(F)F)c1 [Compound 6, 4-[[3-(4-fluorophenyl)-5-propyl-1H-1,2,4-triazol-1-yl]methyl]-2-(trifluoromethyl)pyridine]
Plant response rating ([1]; 16 g ai/ha): 0
Plant response rating ([1]; 31 g ai/ha): 0
Plant response rating ([1]; 62 g ai/ha): 0
Plant response rating ([1]; 250 g ai/ha): 10
Plant response rating ([2]; 16 g ai/ha): 0
Plant response rating ([2]; 31 g ai/ha): 0
Plant response rating ([2]; 62 g ai/ha): 15
Plant response rating ([2]; 125 g ai/ha): 30
Plant response rating ([2]; 250 g ai/ha): 40
Plant response rating ([3]; 16 g ai/ha): 10
Plant response rating ([3]; 31 g ai/ha): 40
Plant response rating ([3]; 62 g ai/ha): 50
Plant response rating ([3]; 125 g ai/ha): 70
Plant response rating ([3]; 250 g ai/ha): 80
Plant response rating ([4]; 16 g ai/ha): 20
Plant response rating ([4]; 31 g ai/ha): 50
Plant response rating ([4]; 62 g ai/ha): 60
Plant response rating ([4]; 125 g ai/ha): 95
Plant response rating ([4]; 250 g ai/ha): 95
Plant response rating ([5]; 31 g ai/ha): 70
Plant response rating ([5]; 62 g ai/ha): 100
Plant response rating ([5]; 125 g ai/ha): 100
Plant response rating ([5]; 250 g ai/ha): 100
Plant response rating ([6]; 16 g ai/ha): 60
Plant response rating ([6]; 31 g ai/ha): 80
Plant response rating ([6]; 62 g ai/ha): 80
Plant response rating ([6]; 125 g ai/ha): 85
Plant response rating ([6]; 250 g ai/ha): 100
Plant response rating ([7]; 16 g ai/ha): 0
Plant response rating ([7]; 31 g ai/ha): 10
Plant response rating ([7]; 62 g ai/ha): 40
Plant response rating ([7]; 125 g ai/ha): 50
Plant response rating ([7]; 250 g ai/ha): 70

CCOc1nc(-c2ccc(F)cc2)nn1Cc1ccnc(C(F)(F)F)c1 [Compound 8, 4-[[5-ethoxy-3-(4-fluorophenyl)-1H-1,2,4-triazol-1-yl]methyl]-2-(trifluoromethyl)pyridine]
Plant response rating ([2]; 62 g ai/ha): 25
Plant response rating ([2]; 125 g ai/ha): 35
Plant response rating ([3]; 62 g ai/ha): 60
Plant response rating ([3]; 125 g ai/ha): 98
Plant response rating ([5]; 62 g ai/ha): 100
Plant response rating ([5]; 125 g ai/ha): 100
Plant response rating ([6]; 62 g ai/ha): 100
Plant response rating ([6]; 125 g ai/ha): 100
Plant response rating ([7]; 62 g ai/ha): 50
Plant response rating ([7]; 125 g ai/ha): 50

Cn1nc(-c2ccc(F)cc2)nc1Oc1cccc(C(F)(F)F)c1 [Compound 5, 3-(4-fluorophenyl)-1-methyl-5-[3-(trifluoromethyl)phenoxy]-1H-1,2,4-triazole]
Ducksalad plant response rating (0 to 100) ([8]; 31 g ai/ha): 20
Ducksalad plant response rating (0 to 100) ([8]; 62 g ai/ha): 30
Ducksalad plant response rating (0 to 100) ([8]; 125 g ai/ha): 40
Ducksalad plant response rating (0 to 100) ([8]; 250 g ai/ha): 60
Rice plant response rating (0 to 100) ([9]; 31 g ai/ha): 0
Rice plant response rating (0 to 100) ([9]; 62 g ai/ha): 0
Rice plant response rating (0 to 100) ([9]; 125 g ai/ha): 0
Rice plant response rating (0 to 100) ([9]; 250 g ai/ha): 0
Barnyardgrass plant response rating (0 to 100) ([10]; 31 g ai/ha): 10
Barnyardgrass plant response rating (0 to 100) ([10]; 62 g ai/ha): 10
Barnyardgrass plant response rating (0 to 100) ([10]; 125 g ai/ha): 15
Barnyardgrass plant response rating (0 to 100) ([10]; 250 g ai/ha): 15
